# US6498155B1, “Methods of treating thrombocytopenia” (SmithKline Beecham Corporation, priority 1998, dated 2002)
# How the values were obtained:
# [1] = tested on: purified human CD34+ progenitor cells; conditions: concentrations 1-30 uM; 10 days liquid culture, CD41 by flow cytometry
# Procedure: (§1) 32D-mpl cells express Tpo-R and their survival is dependent on the presence of TPO. […] In this assay, purified human CD34+ progenitor cells were incubated in liquid culture with test compounds for 10 days and the number of cells expressing the transmembrane glycoprotein CD41 (gpIIb), a megakaryocytic marker, was then measured by flow cytometry (see Cwirla, S. E. et al Science, 1997, 276, 1696-1699).
# 32D-mpl cells = conditions: concentration 1-30 uM
# Procedure: as §1
compound,measurement,setting,value
"Cl.Cl.Cl.Cl.Cl.Cl.Cl.Cl.O.O.c1cc(CN2CCCNCCNCCCNCC2)ccc1CN1CCCNCCNCCCNCC1 [Example 1, 1,1′-[1,4-Phenylenebis(methylene)]bis[1,4.8,11-tetraazacyclotetradecane]octahydrochloride Dihydrate]",activity in the CD41 megakaryocytic assay,[1],showed activity
same,proliferation of 32D-mpl cells,32D-mpl cells,promoted the proliferation
